# Assay results as given in patent US20250163104A1, “MACROCYCLIC IMMUNOMODULATORS” (priority 2021, published 2025).
# *1 amine or outer side, *2 acyl side, *3 side chain or, on linkers, in order; H or OH if unused. Where a SMILES comes first, the peptide text is derived from it. Bridges are numbered along the chain shown (N, C = ends). [ ]: non-standard residue; d: D form. The star is where a group is joined. ξ: configuration not given here. Phe(3-CF3) = N[C@@H](Cc1cccc(C(F)(F)F)c1)C(=O)O; Ala(morpholin-4-yl) = N[C@@H](CN1CCOCC1)C(=O)O; Phe(4-CONH2) = NC(=O)c1ccc(C[C@H](N)C(=O)O)cc1; Phe(4-COOH) = N[C@@H](Cc1ccc(C(=O)O)cc1)C(=O)O; Phe(4-CH2NH2) = NCc1ccc(C[C@H](N)C(=O)O)cc1; Bip = N[C@@H](Cc1ccc(-c2ccccc2)cc1)C(=O)O; Phe(3-Cl) = N[C@@H](Cc1cccc(Cl)c1)C(=O)O; X7 = CC(=N)NCCC[C@@H](N[*:1])C(=O)[*:2]; Phe(3-Me) = Cc1cccc(C[C@H](N)C(=O)O)c1; Phe(4-F) = N[C@@H](Cc1ccc(F)cc1)C(=O)O; γGlu = O=C(O)[C@H](CCC(=O)[*:2])N[*:1]; Val(3-OH) = CC(C)(O)[C@H](N)C(=O)O; 4Pal = N[C@@H](Cc1ccncc1)C(=O)O; 2Thi = N[C@@H](Cc1cccs1)C(=O)O; Cha = N[C@@H](CC1CCCCC1)C(=O)O; Cit = NC(=O)NCCC[C@H](N)C(=O)O; Ile(3ξ) = CCC(C)[C@H](N)C(=O)O; Carboxymethyl = O=C(O)C*; Orn = NCCC[C@H](N)C(=O)O; Pra = C#CC[C@H](N)C(=O)O; Dab = NCC[C@H](N)C(=O)O; Dap = NC[C@H](N)C(=O)O
# Target: T1, human PD-1 / PD-L1-Ig binding on Jurkat cell line over-expressing human PD-1 (Jurkat-PD-1) (Homo sapiens, UniProt Q15116)
# T1 construct: expressed in transfected cells; host or cells: Jurkat
# Test: Jurkat-PD-1 Cell Binding High-Content Screening Assay (CBA)
# Assay type: cell-based
# Conditions: Jurkat-PD-1 cells, PE-labeled PD-L1-Ig 20 nM final; read-out: Jurkat HPD1_PDL1 IC50
# Method in brief: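 Compounds were preincubated with Jurkat-hPD-1 cells in DMEM plus 10% fetal calf serum for 2 h at 37° C. Phycoerythrin-labeled PD-L1-Ig (20 nM final) was then added for 1 hour. Cells were fixed in 4% paraformaldehyde with Hoechst 33342, and bound fluorescence was quantified by high-content imaging.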
# T1 sequence (Q15116 25-288): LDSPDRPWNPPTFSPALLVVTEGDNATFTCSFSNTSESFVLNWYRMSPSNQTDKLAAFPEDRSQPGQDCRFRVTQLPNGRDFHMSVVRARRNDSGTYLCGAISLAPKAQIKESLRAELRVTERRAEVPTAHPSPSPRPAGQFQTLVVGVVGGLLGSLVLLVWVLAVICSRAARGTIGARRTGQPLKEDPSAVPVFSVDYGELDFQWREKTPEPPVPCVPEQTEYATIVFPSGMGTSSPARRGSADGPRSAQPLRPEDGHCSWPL
row,IC50 [nM],Structure (SMILES)
1,4.5,CC(C)C[C@H]1NC(=O)[C@H](CCCN)NC(=O)[C@H](CCCNC(N)=O)NC(=O)[C@H](Cc2ccc(-c3ccccc3)cc2)NC(=O)[C@H](C(C)C)NC(=O)[C@H](Cc2c[nH]c3ccccc23)NC(=O)[C@H](CC(=O)O)NC(=O)[C@H](Cc2ccncc2)NC(=O)[C@H](CN)NC(=O)CSC[C@@H](C(=O)N[C@@H](C)C(N)=O)NC(=O)[C@H]([C@@H](C)O)NC(=O)[C@H](C(C)C)NC(=O)[C@H](CC2CCCCC2)NC(=O)[C@H](CCN)NC1=O [Compound 2096]
2,4.6,Cc1cccc(C[C@@H]2NC(=O)[C@H](CC(=O)O)NC(=O)[C@H](Cc3ccc(OCC(=O)O)cc3)NC(=O)[C@H](Cc3ccncc3)NC(=O)CSC[C@@H](C(=O)N[C@@H](CCN)C(N)=O)NC(=O)[C@H](CO)NC(=O)[C@H](C(C)(C)O)NC(=O)[C@H](CC3CCCCC3)NC(=O)[C@H](CCN)NC(=O)[C@@H](CC(C)C)NC(=O)[C@H](CCCN)NC(=O)[C@H](Cc3ccc(O)cc3)NC(=O)[C@H](Cc3ccc(-c4ccccc4)cc3)NC(=O)[C@H](Cc3ccc(C(N)=O)cc3)NC2=O)c1 [Compound 2623] ({CH2CO}-[4Pal]Y(Carboxymethyl)D[Phe(3-Me)][Phe(4-CONH2)][Bip]Y[Orn][dL][Dab][Cha][Val(3-OH)]SC[Dab]-NH2; thioether N-14)
3,10.8,CC(C)C[C@H]1NC(=O)[C@H](CCCN)NC(=O)[C@H](CCC(=O)O)NC(=O)[C@H](Cc2ccc(-c3ccccc3)cc2)NC(=O)[C@H](C(C)C)NC(=O)[C@H](Cc2cccc(Cl)c2)NC(=O)[C@H](CC(=O)O)NC(=O)[C@H](Cc2ccncc2)NC(=O)[C@H](Cc2ccc(OCC(=O)O)cc2)NC(=O)CSC[C@@H](C(=O)N[C@@H](C)C(N)=O)NC(=O)[C@H]([C@@H](C)O)NC(=O)[C@H](C(C)C)NC(=O)[C@H](CC2CCCCC2)NC(=O)[C@H](CCN)NC1=O [Compound 1493] ({CH2CO}-Y(Carboxymethyl)[4Pal]D[Phe(3-Cl)]V[Bip]E[Orn][dL][Dab][Cha]VTCA-NH2; thioether N-14)
4,21.8,CCC(C)[C@@H]1NC(=O)[C@H](Cc2ccc(-c3ccccc3)cc2)NC(=O)[C@H](C(C)C)NC(=O)[C@H](Cc2c[nH]c3ccccc23)NC(=O)[C@H](CC(N)=O)NC(=O)[C@H](Cc2ccc(O)cc2)NC(=O)[C@H](CN)NC(=O)CSC[C@@H](C(=O)N[C@@H](C)C(N)=O)NC(=O)[C@H]([C@@H](C)O)NC(=O)[C@H](C(C)C)NC(=O)[C@H](CC(C)C)NC(=O)[C@H](CCN)NC(=O)[C@@H](CC(C)C)NC(=O)[C@H](CCCCN)NC1=O (stereo partly drawn) [Compound 1091] ({CH2CO}-[Dap]YNWV[Bip][Ile(3ξ)]K[dL][Dab]LVTCA-NH2; thioether N-14)
5,10.8,CC(C)C[C@@H]1NC(=O)[C@H](CCN)NC(=O)[C@@H](CC(C)C)NC(=O)[C@@H](C)NC(=O)[C@H](C(C)C)NC(=O)[C@H](Cc2ccc(-c3ccccc3)cc2)NC(=O)[C@H](C(C)C)NC(=O)[C@H](Cc2c[nH]c3ccccc23)NC(=O)[C@H](CC(=O)O)NC(=O)[C@H](Cc2ccc(O)cc2)NC(=O)[C@H](CC(N)=O)NC(=O)CSC[C@@H](C(=O)N[C@@H](C)C(N)=O)NC(=O)[C@H]([C@@H](C)O)NC(=O)[C@H](C(C)C)NC1=O [Compound 1026] ({CH2CO}-NYDWV[Bip]V[dA][dL][Dab]LVTCA-NH2; thioether N-14)
6,13.8,CC(C)C[C@@H]1NC(=O)[C@H](Cc2c[nH]c3ccccc23)NC(=O)[C@H](CC(=O)O)NC(=O)[C@H](Cc2ccc(C(=O)O)cc2)NC(=O)[C@H](Cc2ccc(OCC(=O)O)cc2)NC(=O)CSC[C@@H](C(=O)NCC(N)=O)NC(=O)[C@H](CO)NC(=O)[C@H](C(C)C)NC(=O)[C@H](CC(C)C)NC(=O)[C@H](CC(N)=O)NC(=O)[C@@H](CC(C)C)NC(=O)[C@H](CN)NC(=O)[C@H](C(C)C)NC(=O)[C@H](Cc2ccc(-c3ccccc3)cc2)NC1=O [Compound 1275] ({CH2CO}-Y(Carboxymethyl)[Phe(4-COOH)]DWL[Bip]V[Dap][dL]NLVSCG-NH2; thioether N-14)
7,2.8,CC(C)C[C@H]1NC(=O)[C@H](CCCN)NC(=O)[C@H](Cc2ccc(C(=O)O)cc2)NC(=O)[C@H](Cc2ccc(-c3ccccc3)cc2)NC(=O)[C@H](Cc2ccc(CN)cc2)NC(=O)[C@H](Cc2cccc(C(F)(F)F)c2)NC(=O)[C@H](CC(=O)O)NC(=O)[C@H](Cc2ccc(C(=O)O)cc2)NC(=O)[C@H](CN2CCOCC2)NC(=O)CSC[C@@H](C(=O)N[C@@H](CCN)C(N)=O)NC(=O)[C@H](CCC(=O)O)NC(=O)[C@H](C(C)C)NC(=O)[C@H](CC2CCCCC2)NC(=O)[C@H](CCN)NC1=O [Example 2747] ({CH2CO}-[Ala(morpholin-4-yl)][Phe(4-COOH)]D[Phe(3-CF3)][Phe(4-CH2NH2)][Bip][Phe(4-COOH)][Orn][dL][Dab][Cha]VEC[Dab]-NH2; thioether N-14)
8,32.3,CCCC[C@H]1NC(=O)[C@H](CCCN)NC(=O)[C@H](CCCNC(N)=O)NC(=O)[C@H](Cc2ccc(-c3ccccc3)cc2)NC(=O)[C@H](C(C)C)NC(=O)[C@H](Cc2c[nH]c3ccccc23)NC(=O)[C@H](CC(=O)O)NC(=O)[C@H](Cc2ccc(OCC(=O)O)cc2)NC(=O)[C@H](Cc2ccc(OCC(=O)O)cc2)NC(=O)CSC[C@@H](C(=O)N[C@@H](C)C(N)=O)NC(=O)[C@H]([C@@H](C)O)NC(=O)[C@H](C(C)C)NC(=O)[C@H](CC2CCCCC2)NC(=O)[C@H](CCN)NC1=O [Compound 1698]
9,16.6,CC(C)C[C@H]1NC(=O)[C@H](CCCN)NC(=O)[C@H](C(C)C)NC(=O)[C@H](Cc2ccc(-c3ccccc3)cc2)NC(=O)[C@H](C(C)C)NC(=O)[C@H](Cc2cccc(Cl)c2)NC(=O)[C@H](CC(=O)O)NC(=O)[C@H](Cc2ccc(OCC(=O)O)cc2)NC(=O)[C@H](Cc2ccncc2)NC(=O)CSC[C@@H](C(=O)N[C@@H](C)C(N)=O)NC(=O)[C@H]([C@@H](C)O)NC(=O)[C@H](C(C)C)NC(=O)[C@H](CC2CCCCC2)NC(=O)[C@H](CCN)NC1=O [Compound 1575]
10,10.1,CC(=N)NCCC[C@@H](NC(=O)[C@@H]1CSCC(=O)N[C@@H](Cc2ccc(OCC(=O)O)cc2)C(=O)N[C@@H](Cc2ccc(C(=O)O)cc2)C(=O)N[C@@H](CC(=O)O)C(=O)N[C@@H](Cc2cccc(C)c2)C(=O)N[C@@H](C(C)C)C(=O)N[C@@H](Cc2ccc(-c3ccccc3)cc2)C(=O)N[C@@H](C(C)C)C(=O)N[C@@H](CCN)C(=O)N[C@H](CC(C)C)C(=O)N[C@@H](CCN)C(=O)N[C@@H](CC2CCCCC2)C(=O)N[C@@H](C(C)C)C(=O)N[C@@H](CCCN)C(=O)N1)C(=O)O [Compound 2588] ({CH2CO}-Y(Carboxymethyl)[Phe(4-COOH)]D[Phe(3-Me)]V[Bip]V[Dab][dL][Dab][Cha]V[Orn]C[X7]-OH; thioether N-14)
11,21.7,CC(C)C[C@H]1NC(=O)[C@H](CCCN)NC(=O)[C@H](CCCNC(N)=O)NC(=O)[C@H](Cc2ccc(-c3ccccc3)cc2)NC(=O)[C@H](C(C)C)NC(=O)[C@H](Cc2c[nH]c3ccccc23)NC(=O)[C@H](CC(=O)O)NC(=O)[C@H](Cc2ccc(OCC(=O)O)cc2)NC(=O)[C@H](CN)NC(=O)CSC[C@@H](C(=O)N[C@@H](C)C(N)=O)NC(=O)[C@H]([C@@H](C)O)NC(=O)[C@H](C(C)C)NC(=O)[C@H](Cc2ccc(F)cc2)NC(=O)[C@H](CCN)NC1=O [Compound 1367] ({CH2CO}-[Dap]Y(Carboxymethyl)DWV[Bip][Cit][Orn][dL][Dab][Phe(4-F)]VTCA-NH2; thioether N-14)
12,22.3,CC(C)C[C@@H]1NC(=O)[C@H](CCN)NC(=O)[C@@H](CC(C)C)NC(=O)[C@H](CCCCN)NC(=O)[C@H](C(C)C)NC(=O)[C@H](Cc2ccc(-c3ccccc3)cc2)NC(=O)[C@H](C(C)C)NC(=O)[C@H](Cc2c[nH]c3ccccc23)NC(=O)[C@H](CC(N)=O)NC(=O)[C@H](Cc2ccc(O)cc2)NC(=O)[C@H](CC(N)=O)NC(=O)CSC[C@@H](C(=O)NCC(N)=O)NC(=O)[C@H]([C@@H](C)O)NC(=O)[C@H](C(C)C)NC1=O [Compound 1085] ({CH2CO}-NYNWV[Bip]VK[dL][Dab]LVTCG-NH2; thioether N-14)
13,4.6,C#CC[C@H](NC(=O)CC[C@H](NC(=O)[C@H](C)NC(=O)[C@@H]1CSCC(=O)N[C@@H](CN)C(=O)N[C@@H](Cc2ccc(OCC(=O)O)cc2)C(=O)N[C@@H](CC(=O)O)C(=O)N[C@@H](Cc2cccc(C)c2)C(=O)N[C@@H](Cc2ccc(OCC(=O)O)cc2)C(=O)N[C@@H](Cc2ccc(-c3ccccc3)cc2)C(=O)N[C@@H](Cc2ccc(OCC(=O)O)cc2)C(=O)N[C@@H](CCCN)C(=O)N[C@H](CC(C)C)C(=O)N[C@@H](CCN)C(=O)N[C@@H](CC2CCCCC2)C(=O)N[C@@H](C(C)C)C(=O)N[C@@H]([C@@H](C)O)C(=O)N1)C(=O)O)C(N)=O [Compound 1807] ({CH2CO}-[Dap]Y(Carboxymethyl)D[Phe(3-Me)]Y(Carboxymethyl)[Bip]Y(Carboxymethyl)[Orn][dL][Dab][Cha]VTCA[γGlu][Pra]-NH2; thioether N-14)
14,64.5,CC(C)[C@@H]1NC(=O)[C@H](Cc2c[nH]c3ccccc23)NC(=O)[C@H](CC(=O)O)NC(=O)[C@H](Cc2ccncc2)NC(=O)[C@H](CN)NC(=O)CSC[C@@H](C(=O)N[C@@H](C)C(N)=O)NC(=O)[C@H]([C@@H](C)O)NC(=O)[C@H](C(C)C)NC(=O)[C@H](CC2CCCCC2)NC(=O)[C@H](CCN)NC(=O)[C@@H](Cc2ccc(O)cc2)NC(=O)[C@H](CCCN)NC(=O)[C@H](CCC(=O)O)NC(=O)[C@H](Cc2ccc(-c3ccccc3)cc2)NC1=O [Compound 1446] ({CH2CO}-[Dap][4Pal]DWV[Bip]E[Orn][dY][Dab][Cha]VTCA-NH2; thioether N-14)
15,5.7,Cc1cccc(C[C@@H]2NC(=O)[C@H](CC(=O)O)NC(=O)[C@H](Cc3ccc(C(=O)O)cc3)NC(=O)[C@H](Cc3cccs3)NC(=O)CSC[C@@H](C(=O)N[C@@H](CCN)C(N)=O)NC(=O)[C@H](CO)NC(=O)[C@H](C(C)(C)O)NC(=O)[C@H](CC3CCCCC3)NC(=O)[C@H](CCN)NC(=O)[C@@H](CC(C)C)NC(=O)[C@H](CCCN)NC(=O)[C@H](Cc3ccc(OCC(=O)O)cc3)NC(=O)[C@H](Cc3ccc(-c4ccccc4)cc3)NC(=O)[C@H](Cc3ccc(C(=O)O)cc3)NC2=O)c1 [Compound 2625] ({CH2CO}-[2Thi][Phe(4-COOH)]D[Phe(3-Me)][Phe(4-COOH)][Bip]Y(Carboxymethyl)[Orn][dL][Dab][Cha][Val(3-OH)]SC[Dab]-NH2; thioether N-14)
